We go through 4 compounds from PMC5564600 (Oncotarget, 2017).

Common to all, as to test: biochemical
What all share (assay type): binding

Experiment [1] has as its target T1, panel of 442 kinases (Homo sapiens, UniProt Q9BUB5).
T1 construct: purchased Ambit Biosciences (scanMAXX KINOMEscan)
The note with it: kinase MKNK1; for remaining activity at 1 µM: read-out: % of control at 1 µM.

Experiment [2] has as its target T2, panel of 442 kinases (Homo sapiens, UniProt Q9H2X6).
T2 construct: purchased Ambit Biosciences (scanMAXX KINOMEscan)
To be noted: kinase HIPK2; for remaining activity at 1 µM: read-out: % of control at 1 µM.

In experiment [3] the target is T3, panel of 442 kinases (Homo sapiens, UniProt Q07912).
T3 construct: purchased Ambit Biosciences (scanMAXX KINOMEscan)
To be noted: kinase TNK2; for remaining activity at 1 µM: read-out: TNK2 (% of control at 1 µM).

The target of experiment [4] is T4, panel of 442 kinases (Homo sapiens, UniProt Q8TDX7).
T4 construct: purchased Ambit Biosciences (scanMAXX KINOMEscan)
The note with it: kinase NEK7; for remaining activity at 1 µM: read-out: % of control at 1 µM.

Experiment [5] addresses T5, panel of 442 kinases (Homo sapiens, UniProt O75716).
T5 construct: purchased Ambit Biosciences (scanMAXX KINOMEscan)
The note with it: kinase STK16; for remaining activity at 1 µM: read-out: STK16 (% of control at 1 µM).

The target in experiment [6] is T6, panel of 442 kinases (Homo sapiens, UniProt Q00532).
T6 construct: purchased Ambit Biosciences (scanMAXX KINOMEscan)
The note with it: CDKL1; for remaining activity at 1 µM: read-out: % of control at 1 µM.

Experiment [7] addresses T7, panel of 442 kinases (Homo sapiens, UniProt O43318).
T7 construct: purchased Ambit Biosciences (scanMAXX KINOMEscan)
T7 sequence (O43318 1-606): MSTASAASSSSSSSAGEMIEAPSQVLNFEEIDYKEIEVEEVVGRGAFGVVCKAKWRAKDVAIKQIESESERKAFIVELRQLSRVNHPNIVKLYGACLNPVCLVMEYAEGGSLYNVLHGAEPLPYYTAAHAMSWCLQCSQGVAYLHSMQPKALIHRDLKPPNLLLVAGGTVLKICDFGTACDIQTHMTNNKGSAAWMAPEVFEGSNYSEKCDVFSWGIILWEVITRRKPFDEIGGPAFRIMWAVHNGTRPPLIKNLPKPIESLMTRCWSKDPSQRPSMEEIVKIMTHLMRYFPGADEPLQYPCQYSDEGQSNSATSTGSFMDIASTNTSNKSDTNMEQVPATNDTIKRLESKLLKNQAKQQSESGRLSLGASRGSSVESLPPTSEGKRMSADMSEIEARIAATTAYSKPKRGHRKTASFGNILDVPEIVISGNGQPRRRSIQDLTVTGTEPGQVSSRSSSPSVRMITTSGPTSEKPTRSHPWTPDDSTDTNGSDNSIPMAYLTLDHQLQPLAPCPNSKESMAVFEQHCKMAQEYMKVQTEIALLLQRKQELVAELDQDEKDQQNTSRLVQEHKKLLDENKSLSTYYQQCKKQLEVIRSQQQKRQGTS
The note with it: kinase TAK1; for remaining activity at 1 µM: read-out: TAK1 (% of control at 1 µM).

Experiment [8] concerns the target T8, panel of 442 kinases (Homo sapiens, UniProt Q9BXA7).
T8 construct: purchased Ambit Biosciences (scanMAXX KINOMEscan)
T8 sequence (Q9BXA7 1-367): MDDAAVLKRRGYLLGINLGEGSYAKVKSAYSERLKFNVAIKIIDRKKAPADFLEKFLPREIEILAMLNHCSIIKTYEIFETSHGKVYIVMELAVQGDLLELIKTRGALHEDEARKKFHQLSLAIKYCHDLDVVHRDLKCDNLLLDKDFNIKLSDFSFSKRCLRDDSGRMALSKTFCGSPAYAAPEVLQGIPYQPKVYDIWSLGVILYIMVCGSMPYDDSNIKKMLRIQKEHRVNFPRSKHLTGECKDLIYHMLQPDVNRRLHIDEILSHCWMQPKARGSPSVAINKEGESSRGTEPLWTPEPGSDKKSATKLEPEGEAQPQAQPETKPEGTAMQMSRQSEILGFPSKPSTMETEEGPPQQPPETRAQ
To be noted: kinase TSSK1B; for remaining activity at 1 µM: read-out: TSSK1B (% of control at 1 µM).

Experiment [9] concerns the target T9, panel of 442 kinases (Homo sapiens, UniProt Q8N752).
T9 construct: purchased Ambit Biosciences (scanMAXX KINOMEscan)
T9 sequence (Q8N752 1-337): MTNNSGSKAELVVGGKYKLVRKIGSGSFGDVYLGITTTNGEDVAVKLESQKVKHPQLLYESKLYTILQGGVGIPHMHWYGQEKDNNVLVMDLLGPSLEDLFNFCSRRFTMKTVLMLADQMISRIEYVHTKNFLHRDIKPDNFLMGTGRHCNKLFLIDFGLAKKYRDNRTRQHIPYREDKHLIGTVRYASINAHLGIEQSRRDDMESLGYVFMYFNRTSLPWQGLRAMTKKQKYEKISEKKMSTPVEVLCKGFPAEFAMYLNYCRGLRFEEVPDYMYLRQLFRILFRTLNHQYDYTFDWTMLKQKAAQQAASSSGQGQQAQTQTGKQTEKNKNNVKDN
To be noted: CSNK1A1L; for remaining activity at 1 µM: read-out: % of control at 1 µM.

The target of experiment [10] is T10, panel of 442 kinases (Homo sapiens, UniProt Q9BQI3).
T10 construct: purchased Ambit Biosciences (scanMAXX KINOMEscan)
The note with it: EIF2AK1; for remaining activity at 1 µM: read-out: % of control at 1 µM.

The mark [11] stands for this setting: 10 µM, read-out: % of control at 10 µM.

T1 sequence (Q9BUB5 whole entry): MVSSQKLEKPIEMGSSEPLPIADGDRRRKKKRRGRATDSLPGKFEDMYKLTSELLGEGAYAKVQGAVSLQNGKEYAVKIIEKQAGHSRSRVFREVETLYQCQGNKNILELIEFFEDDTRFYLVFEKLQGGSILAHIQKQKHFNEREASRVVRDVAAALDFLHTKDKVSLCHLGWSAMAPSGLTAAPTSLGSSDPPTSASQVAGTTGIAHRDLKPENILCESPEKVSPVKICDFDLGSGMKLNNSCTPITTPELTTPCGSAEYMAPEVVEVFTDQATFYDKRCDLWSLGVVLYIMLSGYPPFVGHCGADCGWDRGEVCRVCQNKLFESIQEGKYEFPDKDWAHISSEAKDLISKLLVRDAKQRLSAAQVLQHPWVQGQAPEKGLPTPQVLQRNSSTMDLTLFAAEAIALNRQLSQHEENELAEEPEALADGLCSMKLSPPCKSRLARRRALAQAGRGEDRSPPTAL
T6 sequence (Q00532 whole entry): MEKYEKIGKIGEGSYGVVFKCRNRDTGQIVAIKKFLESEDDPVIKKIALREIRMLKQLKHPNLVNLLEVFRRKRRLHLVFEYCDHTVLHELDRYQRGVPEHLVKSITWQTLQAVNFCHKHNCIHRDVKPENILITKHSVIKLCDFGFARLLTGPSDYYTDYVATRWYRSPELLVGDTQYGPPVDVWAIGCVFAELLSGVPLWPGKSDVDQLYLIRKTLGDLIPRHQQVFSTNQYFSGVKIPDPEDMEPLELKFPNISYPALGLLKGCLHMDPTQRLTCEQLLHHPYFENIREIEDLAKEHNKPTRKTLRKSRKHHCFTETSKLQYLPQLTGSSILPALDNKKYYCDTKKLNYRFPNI
T10 sequence (Q9BQI3 whole entry): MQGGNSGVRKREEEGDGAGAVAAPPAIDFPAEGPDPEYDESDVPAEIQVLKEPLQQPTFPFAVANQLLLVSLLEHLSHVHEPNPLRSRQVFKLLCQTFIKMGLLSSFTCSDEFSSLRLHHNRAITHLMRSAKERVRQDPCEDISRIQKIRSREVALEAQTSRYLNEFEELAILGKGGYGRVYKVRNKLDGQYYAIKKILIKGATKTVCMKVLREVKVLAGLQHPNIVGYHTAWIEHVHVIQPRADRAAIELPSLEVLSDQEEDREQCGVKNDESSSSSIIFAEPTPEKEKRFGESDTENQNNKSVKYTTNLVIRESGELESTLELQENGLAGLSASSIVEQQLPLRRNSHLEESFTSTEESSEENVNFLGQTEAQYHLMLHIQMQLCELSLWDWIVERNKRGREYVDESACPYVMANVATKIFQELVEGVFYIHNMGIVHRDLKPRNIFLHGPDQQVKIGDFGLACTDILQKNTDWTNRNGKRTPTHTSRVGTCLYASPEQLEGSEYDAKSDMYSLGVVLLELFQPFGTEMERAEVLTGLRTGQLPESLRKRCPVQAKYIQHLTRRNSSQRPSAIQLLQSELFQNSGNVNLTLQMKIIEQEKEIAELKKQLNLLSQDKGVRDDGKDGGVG
T5 sequence (O75716 whole entry): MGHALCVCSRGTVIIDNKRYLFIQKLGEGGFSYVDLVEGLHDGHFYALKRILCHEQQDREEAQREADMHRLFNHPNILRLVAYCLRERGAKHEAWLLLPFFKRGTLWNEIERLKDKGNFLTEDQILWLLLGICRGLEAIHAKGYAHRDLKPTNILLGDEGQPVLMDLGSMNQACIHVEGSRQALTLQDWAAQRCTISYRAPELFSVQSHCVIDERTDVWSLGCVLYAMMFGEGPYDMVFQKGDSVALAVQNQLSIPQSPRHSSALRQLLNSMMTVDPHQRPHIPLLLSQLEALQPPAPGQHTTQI
T4 sequence (Q8TDX7 whole entry): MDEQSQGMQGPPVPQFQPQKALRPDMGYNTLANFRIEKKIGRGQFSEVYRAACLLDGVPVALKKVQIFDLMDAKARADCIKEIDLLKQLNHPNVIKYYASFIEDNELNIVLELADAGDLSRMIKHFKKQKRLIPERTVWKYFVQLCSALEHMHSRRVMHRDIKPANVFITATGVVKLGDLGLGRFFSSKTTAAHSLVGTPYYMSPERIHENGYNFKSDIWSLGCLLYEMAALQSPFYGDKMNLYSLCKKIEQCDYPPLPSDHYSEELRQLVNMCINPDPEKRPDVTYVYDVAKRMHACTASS
T3 sequence (Q07912 whole entry): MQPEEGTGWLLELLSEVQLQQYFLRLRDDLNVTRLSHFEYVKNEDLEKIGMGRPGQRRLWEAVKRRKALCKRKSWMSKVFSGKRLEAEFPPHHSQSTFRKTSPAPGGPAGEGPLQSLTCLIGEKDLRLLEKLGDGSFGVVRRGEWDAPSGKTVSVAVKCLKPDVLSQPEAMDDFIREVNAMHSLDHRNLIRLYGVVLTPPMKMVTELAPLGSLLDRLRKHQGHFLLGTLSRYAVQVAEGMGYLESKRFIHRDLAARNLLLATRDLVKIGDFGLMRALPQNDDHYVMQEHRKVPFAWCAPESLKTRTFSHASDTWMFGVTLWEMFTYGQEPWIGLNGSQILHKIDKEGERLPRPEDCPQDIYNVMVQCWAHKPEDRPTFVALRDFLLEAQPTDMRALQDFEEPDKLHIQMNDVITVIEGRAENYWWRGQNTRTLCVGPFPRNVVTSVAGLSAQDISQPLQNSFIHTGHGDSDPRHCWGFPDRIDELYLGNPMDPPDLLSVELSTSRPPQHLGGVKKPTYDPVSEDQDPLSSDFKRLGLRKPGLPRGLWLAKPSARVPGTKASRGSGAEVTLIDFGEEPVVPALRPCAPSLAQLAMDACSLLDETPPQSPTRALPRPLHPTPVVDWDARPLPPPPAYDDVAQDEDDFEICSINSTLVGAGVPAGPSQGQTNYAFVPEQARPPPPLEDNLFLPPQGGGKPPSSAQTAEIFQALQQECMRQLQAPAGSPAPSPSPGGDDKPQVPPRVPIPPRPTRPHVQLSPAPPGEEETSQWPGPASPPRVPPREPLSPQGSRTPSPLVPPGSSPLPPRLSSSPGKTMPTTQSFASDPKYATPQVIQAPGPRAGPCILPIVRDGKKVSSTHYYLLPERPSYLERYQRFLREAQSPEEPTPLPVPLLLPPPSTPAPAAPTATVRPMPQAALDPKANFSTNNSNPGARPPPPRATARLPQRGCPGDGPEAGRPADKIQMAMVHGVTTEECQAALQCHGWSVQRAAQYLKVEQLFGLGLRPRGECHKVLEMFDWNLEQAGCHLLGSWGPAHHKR
T2 sequence (Q9H2X6 whole entry): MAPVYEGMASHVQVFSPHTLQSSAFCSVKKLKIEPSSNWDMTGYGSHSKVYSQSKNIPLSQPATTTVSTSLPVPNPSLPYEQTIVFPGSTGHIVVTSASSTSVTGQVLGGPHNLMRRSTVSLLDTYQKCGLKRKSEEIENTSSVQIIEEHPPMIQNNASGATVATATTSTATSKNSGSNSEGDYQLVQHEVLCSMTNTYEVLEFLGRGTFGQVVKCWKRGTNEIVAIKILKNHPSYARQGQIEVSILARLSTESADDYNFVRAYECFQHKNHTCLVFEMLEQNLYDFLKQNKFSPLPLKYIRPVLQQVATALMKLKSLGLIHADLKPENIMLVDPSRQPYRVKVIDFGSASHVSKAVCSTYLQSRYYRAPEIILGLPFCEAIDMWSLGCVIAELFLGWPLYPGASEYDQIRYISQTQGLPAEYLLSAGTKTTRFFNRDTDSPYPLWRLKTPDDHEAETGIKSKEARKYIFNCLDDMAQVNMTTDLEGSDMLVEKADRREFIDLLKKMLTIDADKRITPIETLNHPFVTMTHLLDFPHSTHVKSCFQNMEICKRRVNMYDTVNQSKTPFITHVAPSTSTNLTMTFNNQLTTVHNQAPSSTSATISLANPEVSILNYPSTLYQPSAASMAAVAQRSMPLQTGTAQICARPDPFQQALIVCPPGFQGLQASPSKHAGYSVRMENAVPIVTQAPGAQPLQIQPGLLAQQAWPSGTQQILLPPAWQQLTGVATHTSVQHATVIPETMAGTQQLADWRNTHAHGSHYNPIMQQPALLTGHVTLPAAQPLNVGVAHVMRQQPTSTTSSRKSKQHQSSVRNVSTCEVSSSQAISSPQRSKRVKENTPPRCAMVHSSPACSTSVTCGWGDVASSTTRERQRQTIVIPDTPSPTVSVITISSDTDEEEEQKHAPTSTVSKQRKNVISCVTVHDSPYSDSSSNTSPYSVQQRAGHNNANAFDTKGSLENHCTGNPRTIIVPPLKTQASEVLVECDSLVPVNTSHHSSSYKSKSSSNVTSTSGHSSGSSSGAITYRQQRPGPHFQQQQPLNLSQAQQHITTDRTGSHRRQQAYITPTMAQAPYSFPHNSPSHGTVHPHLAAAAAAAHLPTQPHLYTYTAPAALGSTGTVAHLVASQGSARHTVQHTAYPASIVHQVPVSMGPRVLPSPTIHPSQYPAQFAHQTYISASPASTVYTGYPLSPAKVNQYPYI

Turning to `Nc1cc(C(F)(F)F)c(-c2cc(N3CCOCC3)nc(N3CCOCC3)n2)cn1` [Buparlisib], the remaining activity at 1 µM on panel of 442 kinases [1], at panel of 442 kinases [2], at panel of 442 kinases [3], on panel of 442 kinases [4], at panel of 442 kinases [5] and at panel of 442 kinases [6] was 100% throughout. Also, the remaining activity at 1 µM at panel of 442 kinases [7] was found to be 100%; at panel of 442 kinases [8] it was 97%; on panel of 442 kinases [9] it was 100%; on panel of 442 kinases [10] it was 92%. In addition, the remaining activity at 10 µM was found to be 100% at panel of 442 kinases [1] (setting [11]); 100% on panel of 442 kinases [2] (setting [11]); 100% on panel of 442 kinases [3] (10 µM, read-out: TNK2 (% of control at 10 µM)); 94% at panel of 442 kinases [4] (setting [11]); 92% on panel of 442 kinases [5] (10 µM, read-out: STK16 (% of control at 10 µM)); 100% on panel of 442 kinases [6] (setting [11]). The remaining activity at 10 µM at panel of 442 kinases [7] (10 µM, read-out: TAK1 (% of control at 10 µM)) amounted to 100%; on panel of 442 kinases [8] (10 µM, read-out: TSSK1B (% of control at 10 µM)), 100%; on panel of 442 kinases [9] (setting [11]), 100%; on panel of 442 kinases [10] (setting [11]), 100%.

As for `Cn1c(=O)n(-c2ccc(C(C)(C)C#N)cc2)c2c3cc(-c4cnc5ccccc5c4)ccc3ncc21` [Dactolisib, 2-methyl-2-[4-(3-methyl-2-oxo-8-quinolin-3-yl-2,3-dihydroimidazo[4,5-c]quinolin-1-yl)-phenyl] propionitrile], the remaining activity at 1 µM at panel of 442 kinases [1] was determined as 100%; on panel of 442 kinases [2] it was 64%; on panel of 442 kinases [3] it was 98%; on panel of 442 kinases [4], 90%; at panel of 442 kinases [5], 100%; at panel of 442 kinases [6], 100%. Also, the remaining activity at 1 µM on panel of 442 kinases [7] came to 55%; at panel of 442 kinases [8] it was 98%; on panel of 442 kinases [9], 100%; at panel of 442 kinases [10], 94%.

As for `FC(F)c1nc2ccccc2n1-c1nc(N2CCOCC2)nc(N2CCOCC2)n1` [ZSTK474, 2-(difluoromethyl)-1-[4,6-di(4-morpholinyl)-1,3,5-triazin-2-yl]-1H-benzimidazole], the remaining activity at 1 µM on panel of 442 kinases [1] came out at 92%; on panel of 442 kinases [2], 86%; on panel of 442 kinases [3], 100%; on panel of 442 kinases [4] it was 68%; at panel of 442 kinases [5], 100%; at panel of 442 kinases [6] it was 100%. Moreover, the remaining activity at 1 µM at panel of 442 kinases [7] came to 68%; at panel of 442 kinases [8] it was 76%; at panel of 442 kinases [9], 100%; on panel of 442 kinases [10], 77%.

Regarding `COc1ncc(-c2ccc3nccc(-c4ccnnc4)c3c2)cc1NS(=O)(=O)c1ccc(F)cc1F` [Omipalisib], the remaining activity at 1 µM worked out at 43% on panel of 442 kinases [1]; 91% on panel of 442 kinases [2]; 100% at panel of 442 kinases [3]; 100% at panel of 442 kinases [4]; 42% on panel of 442 kinases [5]; 100% on panel of 442 kinases [6]. Moreover, the remaining activity at 1 µM on panel of 442 kinases [7] amounted to 82%; at panel of 442 kinases [8] it was 100%; on panel of 442 kinases [9], 100%; at panel of 442 kinases [10], 100%.
